Experimental findings from ChEMBL document CHEMBL5136991, “Dual-target inhibitors of poly (ADP-ribose) polymerase-1 for cancer therapy: Advances, challenges, and opportunities” (Eur J Med Chem, 2022) are described below.

Data set [1] can be described thus: Inhibition of PARP (unknown origin). On the set-up: species or system Homo sapiens.
Data set [2] addresses T1, Bromodomain-containing protein 4 (Homo sapiens, UniProt O60885). Nature of the data set: Inhibition of BRD4 (unknown origin).
The target in data set [3] is T1, Bromodomain-containing protein 4. Nature of the data set: Ratio of IC50 for RVX-208 to IC50 for test compound for BRD4 (unknown origin).
For data set [4], the target named is T2, Poly [ADP-ribose] polymerase 1 (Homo sapiens, UniProt P09874). Nature of the data set: Inhibition of PARP1 (unknown origin).
Data set [5] addresses T1, Bromodomain-containing protein 4. Nature of the data set: Inhibition of BRD4 (unknown origin) relative to control. Conditions: concentration not given here.
In data set [6] the target is T3, Bromodomain-containing protein 1 (Homo sapiens, UniProt O95696).
T3 sequence (O95696 whole entry): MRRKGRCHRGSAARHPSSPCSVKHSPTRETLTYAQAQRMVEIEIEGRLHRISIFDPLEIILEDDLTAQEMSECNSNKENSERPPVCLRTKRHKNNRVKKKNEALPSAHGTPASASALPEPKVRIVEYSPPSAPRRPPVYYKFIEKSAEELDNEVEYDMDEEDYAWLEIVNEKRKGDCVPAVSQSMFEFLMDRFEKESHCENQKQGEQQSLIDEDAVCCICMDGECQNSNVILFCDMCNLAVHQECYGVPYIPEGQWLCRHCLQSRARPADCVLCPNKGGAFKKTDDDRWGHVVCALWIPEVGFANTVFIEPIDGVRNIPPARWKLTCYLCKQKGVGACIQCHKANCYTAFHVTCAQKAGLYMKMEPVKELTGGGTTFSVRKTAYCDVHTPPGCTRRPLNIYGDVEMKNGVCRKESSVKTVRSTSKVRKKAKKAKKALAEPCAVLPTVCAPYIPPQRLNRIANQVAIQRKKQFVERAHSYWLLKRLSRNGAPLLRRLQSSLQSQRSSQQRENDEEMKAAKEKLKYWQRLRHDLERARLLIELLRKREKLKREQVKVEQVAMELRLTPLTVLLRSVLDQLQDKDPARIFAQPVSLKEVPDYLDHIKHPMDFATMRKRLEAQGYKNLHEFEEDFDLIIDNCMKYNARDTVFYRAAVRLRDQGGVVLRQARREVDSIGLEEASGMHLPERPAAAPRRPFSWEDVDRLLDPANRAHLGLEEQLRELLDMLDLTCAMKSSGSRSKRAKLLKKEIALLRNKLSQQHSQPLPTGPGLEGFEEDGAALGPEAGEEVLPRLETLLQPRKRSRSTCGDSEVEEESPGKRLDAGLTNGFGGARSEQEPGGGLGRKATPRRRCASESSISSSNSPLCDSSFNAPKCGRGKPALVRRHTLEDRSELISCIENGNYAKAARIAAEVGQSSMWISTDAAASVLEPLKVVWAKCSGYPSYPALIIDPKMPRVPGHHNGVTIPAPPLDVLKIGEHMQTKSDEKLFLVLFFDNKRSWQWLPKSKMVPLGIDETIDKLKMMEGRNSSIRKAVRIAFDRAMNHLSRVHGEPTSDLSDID
Nature of the data set: Inhibition of BRD1 (unknown origin).

Data set [7] addresses Bromodomain-containing protein 2 (Homo sapiens, UniProt P25440). Nature of the data set: Inhibition of BRD2 (unknown origin).
Data set [8] concerns the target T2, Poly [ADP-ribose] polymerase 1. Nature of the data set: Inhibition of PARP1 (unknown origin) relative to control. Particulars: concentration not given here.
A short description of data set [9]: Half life in Sprague-Dawley rat plasma at 10 mg/kg, po. It counts as ADME, organism-based. Conditions: in vivo.
Data set [10] can be described thus: AUC (0 to infinity) in Sprague-Dawley rat plasma at 10 mg/kg, po. On the set-up: time infinity, dose 10 mg/kg, route po. Particulars: in vivo. It counts as ADME, organism-based.
Data set [11] can be described thus: Cmax in Sprague-Dawley rat plasma at 10 mg/kg, po. The class given is ADME, organism-based. Also noted: dose 10 mg/kg, route po. Conditions: in vivo.
Data set [12] is described as follows: Tmax in Sprague-Dawley rat plasma at 10 mg/kg, po. It counts as ADME, organism-based. Particulars: in vivo.
Data set [13] is described as follows: MRT in Sprague-Dawley rat plasma at 10 mg/kg, po. It counts as ADME, organism-based.
Data set [14] addresses T1, Bromodomain-containing protein 4. Nature of the data set: Inhibition of BRD4 (unknown origin) at […] relative to control.
Data set [15] has as its target T2, Poly [ADP-ribose] polymerase 1. Nature of the data set: Inhibition of PARP1 (unknown origin) at […] relative to control.
Data set [16] is described as follows: Ratio of olaparib IC50 to test compound IC50 for antiproliferative against BRCA proficient human MCF7 cells. It counts as functional.
Data set [17] is described as follows: Ratio of olaparib IC50 to test compound IC50 for antiproliferative against BRCA deficient human HCC1937 cells. The class given is functional.
In another data set the test system is MCF7. Nature of the data set: Antiproliferative activity against BRCA proficient human MCF7 cells assessed as inhibition of cell growth incubated for 48 hrs by MTT assay. Particulars: MCF7, 48 h. The class given is functional, cell-based.
In another data set the test system is HCC1937. Nature of the data set: Antiproliferative activity against BRCA deficient human HCC1937 cells assessed as inhibition of cell growth incubated for 48 hrs by MTT assay. Conditions: HCC1937, 48 h. It counts as functional, cell-based. Background: Tetrazolium assays rely on reduction of a dye to a coloured formazan, in cell work by metabolically active cells.

Data set [18] has as its target T2, Poly [ADP-ribose] polymerase 1. Nature of the data set: Inhibition of PARP1 (unknown origin) incubated for 60 mins by microplate assay kit method.
The target of data set [19] is Poly [ADP-ribose] polymerase 2 (Homo sapiens, UniProt Q9UGN5). Nature of the data set: Inhibition of PARP2 (unknown origin) incubated for 60 mins by microplate assay kit method.
Data set [20] can be described thus: Inhibition of porcine brain microtubule polymerization incubated for 105 mins by fluorescent based assay. On the set-up: species or system Sus scrofa.
The target in data set [21] is Rho-associated protein kinase 1 (Homo sapiens, UniProt Q13464). Nature of the data set: Inhibition of ROCK1 (unknown origin).
Data set [22] concerns the target Rho-associated protein kinase 2 (Homo sapiens, UniProt O75116). Nature of the data set: Inhibition of ROCK2 (unknown origin).
Data set [23] has as its target Dihydroorotate dehydrogenase (quinone), mitochondrial (Homo sapiens, UniProt Q02127). Nature of the data set: Inhibition of DHODH (unknown origin).

T2 sequence (P09874 whole entry): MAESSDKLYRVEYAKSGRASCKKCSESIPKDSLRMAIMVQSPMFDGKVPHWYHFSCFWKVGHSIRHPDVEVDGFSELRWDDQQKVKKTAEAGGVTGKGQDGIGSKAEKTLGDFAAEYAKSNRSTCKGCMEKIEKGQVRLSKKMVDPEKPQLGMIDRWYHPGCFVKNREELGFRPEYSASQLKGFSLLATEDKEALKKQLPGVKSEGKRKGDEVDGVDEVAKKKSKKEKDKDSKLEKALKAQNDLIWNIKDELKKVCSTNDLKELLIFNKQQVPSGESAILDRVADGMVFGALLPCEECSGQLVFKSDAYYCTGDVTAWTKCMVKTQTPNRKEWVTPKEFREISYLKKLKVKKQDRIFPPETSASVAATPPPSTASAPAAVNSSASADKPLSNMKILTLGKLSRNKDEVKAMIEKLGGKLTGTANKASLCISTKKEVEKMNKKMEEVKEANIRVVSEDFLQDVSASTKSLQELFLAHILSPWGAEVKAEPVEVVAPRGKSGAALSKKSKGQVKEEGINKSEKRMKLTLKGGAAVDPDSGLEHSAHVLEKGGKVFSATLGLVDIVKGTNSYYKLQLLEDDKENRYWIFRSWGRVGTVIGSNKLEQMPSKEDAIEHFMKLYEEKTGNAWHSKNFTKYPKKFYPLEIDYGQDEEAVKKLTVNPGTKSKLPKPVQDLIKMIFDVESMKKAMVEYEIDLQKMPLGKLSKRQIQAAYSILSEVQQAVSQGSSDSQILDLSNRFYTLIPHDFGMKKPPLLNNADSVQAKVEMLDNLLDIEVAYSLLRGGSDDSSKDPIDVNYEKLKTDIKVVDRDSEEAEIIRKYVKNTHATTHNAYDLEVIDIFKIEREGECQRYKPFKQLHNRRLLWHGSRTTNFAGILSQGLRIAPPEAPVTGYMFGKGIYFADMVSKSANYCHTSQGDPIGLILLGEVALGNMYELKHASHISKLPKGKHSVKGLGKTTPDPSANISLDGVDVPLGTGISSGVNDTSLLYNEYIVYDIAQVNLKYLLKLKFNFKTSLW
Chain of Bromodomain-containing protein 2 (P25440 whole entry): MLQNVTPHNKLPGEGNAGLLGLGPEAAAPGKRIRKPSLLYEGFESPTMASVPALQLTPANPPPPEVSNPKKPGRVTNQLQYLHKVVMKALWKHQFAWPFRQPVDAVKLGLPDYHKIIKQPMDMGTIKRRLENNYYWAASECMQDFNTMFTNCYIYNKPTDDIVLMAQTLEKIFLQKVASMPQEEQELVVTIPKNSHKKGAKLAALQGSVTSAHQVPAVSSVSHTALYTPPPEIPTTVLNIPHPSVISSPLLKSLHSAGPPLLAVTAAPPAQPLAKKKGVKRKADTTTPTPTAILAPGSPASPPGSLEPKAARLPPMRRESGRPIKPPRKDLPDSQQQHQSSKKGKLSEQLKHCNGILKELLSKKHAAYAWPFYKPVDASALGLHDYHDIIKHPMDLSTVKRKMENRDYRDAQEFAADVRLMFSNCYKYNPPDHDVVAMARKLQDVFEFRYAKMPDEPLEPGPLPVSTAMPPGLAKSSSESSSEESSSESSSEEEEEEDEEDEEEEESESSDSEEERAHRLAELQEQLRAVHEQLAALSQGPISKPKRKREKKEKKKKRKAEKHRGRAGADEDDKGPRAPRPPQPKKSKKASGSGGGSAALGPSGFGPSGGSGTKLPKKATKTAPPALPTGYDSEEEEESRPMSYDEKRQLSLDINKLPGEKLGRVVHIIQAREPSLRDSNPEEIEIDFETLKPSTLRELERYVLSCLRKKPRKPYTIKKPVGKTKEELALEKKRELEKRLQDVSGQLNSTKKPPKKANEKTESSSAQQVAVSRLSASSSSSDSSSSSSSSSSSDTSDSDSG
Chain of Rho-associated protein kinase 1 (Q13464 whole entry): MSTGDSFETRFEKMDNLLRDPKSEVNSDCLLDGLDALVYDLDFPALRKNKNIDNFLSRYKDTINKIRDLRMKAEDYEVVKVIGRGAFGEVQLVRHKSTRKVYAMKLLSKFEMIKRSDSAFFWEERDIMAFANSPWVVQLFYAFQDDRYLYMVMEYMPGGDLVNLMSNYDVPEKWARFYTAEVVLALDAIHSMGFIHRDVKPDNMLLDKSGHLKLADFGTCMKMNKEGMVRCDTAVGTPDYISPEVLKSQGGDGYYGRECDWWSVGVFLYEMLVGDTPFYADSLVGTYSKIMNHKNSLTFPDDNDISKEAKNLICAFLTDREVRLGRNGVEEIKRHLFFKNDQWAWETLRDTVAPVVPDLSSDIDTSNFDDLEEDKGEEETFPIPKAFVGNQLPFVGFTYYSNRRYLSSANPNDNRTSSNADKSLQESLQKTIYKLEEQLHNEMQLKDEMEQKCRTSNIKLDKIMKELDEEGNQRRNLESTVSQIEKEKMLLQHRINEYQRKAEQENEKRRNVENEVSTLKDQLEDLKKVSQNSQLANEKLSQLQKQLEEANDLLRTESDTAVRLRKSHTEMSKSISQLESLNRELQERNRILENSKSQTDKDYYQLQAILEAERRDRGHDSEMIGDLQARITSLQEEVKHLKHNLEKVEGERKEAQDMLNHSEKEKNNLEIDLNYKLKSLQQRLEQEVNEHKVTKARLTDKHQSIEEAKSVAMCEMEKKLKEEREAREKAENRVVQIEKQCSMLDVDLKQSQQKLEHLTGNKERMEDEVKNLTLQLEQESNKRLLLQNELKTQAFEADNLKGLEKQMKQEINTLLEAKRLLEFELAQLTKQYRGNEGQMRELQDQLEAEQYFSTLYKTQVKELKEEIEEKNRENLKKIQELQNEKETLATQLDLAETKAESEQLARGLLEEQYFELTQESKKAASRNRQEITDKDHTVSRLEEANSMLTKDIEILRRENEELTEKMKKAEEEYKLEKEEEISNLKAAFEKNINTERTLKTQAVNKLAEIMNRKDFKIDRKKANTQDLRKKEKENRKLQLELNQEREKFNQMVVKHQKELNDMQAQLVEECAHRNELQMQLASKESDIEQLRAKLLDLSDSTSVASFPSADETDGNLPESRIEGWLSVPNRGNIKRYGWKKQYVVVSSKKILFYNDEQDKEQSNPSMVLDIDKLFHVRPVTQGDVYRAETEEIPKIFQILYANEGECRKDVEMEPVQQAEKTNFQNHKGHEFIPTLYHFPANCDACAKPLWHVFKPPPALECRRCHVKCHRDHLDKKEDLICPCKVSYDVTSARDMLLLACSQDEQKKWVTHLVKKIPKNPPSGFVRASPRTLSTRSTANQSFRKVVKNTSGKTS
Chain of Rho-associated protein kinase 2 (O75116 whole entry): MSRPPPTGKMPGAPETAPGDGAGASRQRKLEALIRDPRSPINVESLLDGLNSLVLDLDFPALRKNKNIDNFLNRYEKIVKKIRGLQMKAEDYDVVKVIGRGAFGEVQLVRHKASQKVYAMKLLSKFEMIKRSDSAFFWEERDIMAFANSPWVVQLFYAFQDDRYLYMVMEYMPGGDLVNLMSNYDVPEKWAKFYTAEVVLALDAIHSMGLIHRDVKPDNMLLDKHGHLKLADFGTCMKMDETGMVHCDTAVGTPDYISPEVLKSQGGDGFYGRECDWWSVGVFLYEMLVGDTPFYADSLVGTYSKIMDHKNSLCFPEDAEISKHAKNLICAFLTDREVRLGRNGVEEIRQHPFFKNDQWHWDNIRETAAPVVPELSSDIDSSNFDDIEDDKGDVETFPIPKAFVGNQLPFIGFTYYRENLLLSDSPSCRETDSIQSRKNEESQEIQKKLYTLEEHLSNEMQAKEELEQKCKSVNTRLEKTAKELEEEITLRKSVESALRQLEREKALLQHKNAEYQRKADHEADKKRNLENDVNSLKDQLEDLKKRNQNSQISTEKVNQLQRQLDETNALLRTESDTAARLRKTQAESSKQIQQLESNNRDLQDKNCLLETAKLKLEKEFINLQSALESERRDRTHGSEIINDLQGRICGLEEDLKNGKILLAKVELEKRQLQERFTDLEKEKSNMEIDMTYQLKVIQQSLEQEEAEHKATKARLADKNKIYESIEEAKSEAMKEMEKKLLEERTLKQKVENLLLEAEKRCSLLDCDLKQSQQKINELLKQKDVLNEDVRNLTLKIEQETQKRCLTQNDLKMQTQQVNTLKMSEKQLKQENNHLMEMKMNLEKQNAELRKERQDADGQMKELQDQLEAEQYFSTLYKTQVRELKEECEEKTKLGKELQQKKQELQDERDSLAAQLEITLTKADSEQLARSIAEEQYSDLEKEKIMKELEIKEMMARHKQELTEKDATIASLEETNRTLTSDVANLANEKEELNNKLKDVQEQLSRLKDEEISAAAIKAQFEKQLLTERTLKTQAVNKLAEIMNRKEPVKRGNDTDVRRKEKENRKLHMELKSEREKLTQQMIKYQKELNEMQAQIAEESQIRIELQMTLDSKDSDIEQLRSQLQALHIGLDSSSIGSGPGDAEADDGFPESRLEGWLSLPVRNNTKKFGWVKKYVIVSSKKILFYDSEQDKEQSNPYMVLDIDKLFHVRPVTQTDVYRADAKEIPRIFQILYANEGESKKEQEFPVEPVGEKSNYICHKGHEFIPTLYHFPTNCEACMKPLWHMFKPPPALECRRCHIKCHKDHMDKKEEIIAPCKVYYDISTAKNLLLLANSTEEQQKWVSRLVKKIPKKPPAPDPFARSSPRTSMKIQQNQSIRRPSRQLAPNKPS
Chain of Dihydroorotate dehydrogenase (quinone), mitochondrial (Q02127 whole entry): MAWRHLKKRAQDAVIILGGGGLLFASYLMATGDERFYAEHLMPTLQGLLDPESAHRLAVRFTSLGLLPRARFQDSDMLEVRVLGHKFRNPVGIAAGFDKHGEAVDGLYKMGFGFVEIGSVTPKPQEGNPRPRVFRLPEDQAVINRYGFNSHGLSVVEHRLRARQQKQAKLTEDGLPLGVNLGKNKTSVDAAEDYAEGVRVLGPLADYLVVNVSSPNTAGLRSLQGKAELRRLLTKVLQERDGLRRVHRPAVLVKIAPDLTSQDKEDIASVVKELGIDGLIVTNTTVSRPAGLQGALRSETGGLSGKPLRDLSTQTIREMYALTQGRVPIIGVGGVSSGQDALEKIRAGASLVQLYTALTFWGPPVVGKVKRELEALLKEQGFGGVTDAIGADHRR

For orientation: IC50 means the concentration that inhibits the measured activity by half. `CC(=O)Nc1cccc(-c2ccc(-c3nc4c(C(N)=O)cccc4[nH]3)cc2)c1` gave an IC50 in data set [1] of 0.46 µM.
A word on the inhibition: it is the drop in the measured response relative to a control, in per cent. Read a high inhibition as a response far below the control. Broadly, the AUC is concentration integrated over time. Lower therefore signals low exposure. A word on the Cmax: it is the peak of the concentration-time curve. In general, Tmax refers to the time from dosing to the highest level. For orientation: MRT means the average time that molecules of a dose stay in the body. Take `COc1cc(OC)c2c(=O)[nH]c(-c3ccc(OCCOc4ccccc4C(N)=O)cc3)nc2c1`: the IC50 in data set [2] was determined as 0.4 µM; in [4], 4.6 µM; in data set [6], 0.44 µM; in [7], 0.379 µM. Besides, the Ratio IC50 in data set [3] stood at 30. The inhibition was determined as 92% in [5] and 88% in data set [8]. This compound registered a t1/2 in data set [9] of 3.1 h. The compound further showed an AUC in data set [10] of 0.1447 µg·h/mL. Also, the Cmax in data set [11] came to 0.02665 µg/mL. For the same compound, the Tmax in data set [12] was 1.58 h. The MRT in data set [13] stood at 5.35 h.
On to `COc1cc(OC)c2c(=O)[nH]c(-c3ccc([C@@H]4CCCNC4)cc3)nc2c1`, for which the inhibition in data set [14] came to 30%; in data set [15], 65%.
Compound `NC(=O)c1cccc2[nH]c(-c3ccc(-c4cncc(CN5CCCC5)c4)cc3)nc12` had an IC50 in data set [1] of 0.061 µM.
Take `O=C1/C(=C/c2ccncc2)CN(C(=O)c2cc(Cc3n[nH]c(=O)c4ccccc34)ccc2F)C/C1=C\c1ccncc1`: the “Ratio IC50” value in data set [16] was 200; in data set [17] it was 40.
Consider `CC(=O)Nc1ccc(COc2ccc(-c3ccc(-c4nc5c(C(=O)O)cc(C)cc5[nH]4)cc3)cc2)cc1`, for which the IC50 in data set [1] was 44 µM.
With `O=C(c1cc(Cc2n[nH]c(=O)c3ccccc23)ccc1F)N1CCN(C(=O)C2CC2)CC1` [OLAPARIB], the values for the IC50 in the data set with MCF7 and in the data set on HCC1937 were 232 µM and 83.1 µM, respectively.
Consider `CCOC(=O)Nc1nc2ccc(-c3cc(Cc4n[nH]c(=O)c5ccccc45)ccc3F)cc2[nH]1`, for which the IC50 is 0.005 µM in data set [18], 0.05 µM in data set [19] and 0.99 µM in data set [20].
Consider `O=C(COc1cccc2c(=O)[nH]ccc12)c1ccccc1`, for which the IC50 in [21] is 9.3 µM; in data set [22] it was 20.5 µM.
For the compound `O=C(O)c1cc(F)cc2[nH]c(-c3ccc(-c4ccc(NC(=O)C5CC5)cc4F)cc3F)nc12`, the IC50 in data set [1] was found to be 0.084 µM; in data set [23], 48 µM.
